Test results reported in US12642805B2, “Use of oxygenated cholesterol sulfates for treating at least one of insulin resistance, diabetes, and prediabetes” (Medicis Pharmaceutical Corporation, priority 2020, dated 2026).
Like-named read-outs stand apart in the source and are kept apart here.

Experiments:
Huh-7 cells [1] = experiment: real-time RT-PCR gene expression; type: cell-based, human; conditions: HG 72 h; 25HC3S 6.25-50 μM, 1-8 hours
Experimental: FIGS. 3A-3D. Expression of key genes related to signaling pathways. […] Key Genes and their targeting genes expression were determined by RT-PCR analysis. […] Each sample, 2 μg, was sent to […], Inc. (Hopkinton, MA) for analysis of global methylation bisulfite sequencing. The same samples, 6 μg, were sent to Novogene Co., Ltd (Tianjin, China) for analysis of whole genome bisulfite sequencing (WGBS). Total RNA was isolated using the Promega SV total RNA isolation system (Madison, WI) with DNase treatment. […] Real-time RT-PCR was performed using SYBR Green as the indicator on ABI 7500 Fast Real-Time PCR System (Applied Biosystems, Foster City, CA). Amplifications of β-actin or GAPDH were used as internal controls. Relative messenger RNA (mRNA) expression was quantified with the comparative cycle threshold (Ct) method using the primer set shown in Table 1.1 and was expressed as 2^-ΔΔCt.

Huh-7 cells [2] = experiment: whole genome bisulfite sequencing (WGBS), 5mCpG demethylation in promoter regions; type: cell-based, human
Experimental: Each sample, 2 μg, was sent to EpigenDx, Inc. (Hopkinton, MA) for analysis of global methylation bisulfite sequencing. The same samples, 6 μg, were sent to Novogene Co., Ltd (Tianjin, China) for analysis of whole genome bisulfite sequencing (WGBS). Total RNA was isolated using the Promega SV total RNA isolation system (Madison, WI) with DNase treatment. Each sample, 2 μg, was used for the first-strand cDNA synthesis as recommended by the manufacturer (Invitrogen, Carlsbad, CA). Real-time RT-PCR was performed using SYBR Green as the indicator on ABI 7500 Fast Real-Time PCR System (Applied Biosystems, Foster City, CA). Amplifications of β-actin or GAPDH were used as internal controls. Relative messenger RNA (mRNA) expression was quantified with the comparative cycle threshold (Ct) method using the primer set shown in Table 1.1 and was expressed as 2^−ΔΔCt.
Each sample, […] of genomic DNA spiked with 26 ng lambda DNA, was fragmented by sonication to 200-300 bp with Covaris S220, followed by end repair and adenylation. Cytosine-methylated barcodes were ligated to sonicated DNA per the manufacturer's instructions. These DNA fragments were treated twice with bisulfite using EZ DNA Methylation-Gold™ Kit (Zymo Research) before the resulting single-strand DNA fragments were PCR amplified using KAPA HiFi Hot Start Uracil and Ready Mix (2×). Library concentration was quantified by Qubit® 2.0 Flurometer (Life Technologies, CA, USA) and quantitative PCR, and the insert size was assayed on an Agilent Bioanalyzer 2100 system.
The library preparations were sequenced on an Illumina Hiseq 2500/4000 or Novaseq platform and 125 bp/150 bp paired-end reads were generated. Image analysis and base calling were performed with Illumina CASAVA pipeline. Trimmomatic (Trimmomatic-0.36) software was used for quality control. Bismark software (version 0.16.3; Krueger F, 2011) was used to perform alignments of bisulfite-treated reads to a reference genome (−X 700-dovetail). DSS software (23) was used to identify differentially methylated regions (DMRs). KOBAS software was used to test the statistical enrichment of DMR related genes in the Kyoto Encyclopedia of Genes and Genomes (KEGG) pathways.
Each sample (6 μg) was used for analysis of the whole genome bisulfite sequencing (WGBS).

[3] = Phase 1b 4-week oral dosing study in NASH patients: pharmacokinetics; type: in vivo, human; conditions: for AUC(0-t) / Cmax / half-life / Tmax: both sexes, human, plasma, oral; for AUC(0-t): read-out: AUC(0-T), mean (standard deviation); for Cmax: read-out: Cmax, mean (standard deviation); for half-life: read-out: T1/2, mean (standard deviation) (converted); for Tmax: read-out: Tmax, mean (standard deviation)
Excerpt: A total of 63 patients completed the study with 21 patients per dose group (completion of MRI-PDFF measurement). […] Subjects provided written informed consent to participate in the study • 2. Males or females subjects 18 years or older, at the time of signing informed consent • 3. BMI 20-45 kg/m^2 • 4. […] Value of Fibroscan®≥7 kPa • OR • b. MRE≥2.75 kPa • Clinical diagnosis of NASH was defined in this clinical trial as the existence of one or more of the following risk factors for NASH, namely: • a. Type 2 diabetes or elevated fasting blood sugar • b. Abdominal obesity • c. Elevated lipid levels, especially elevated levels of serum triglycerides • d. Hypertension, or • e. Low levels of HDL cholesterol • 5. For serum transaminases, ALT concentration for all patients at the time of screening was >1 and <5 times upper limit of normal (ULN) of the central lab in the absence of another cause of liver disease. If a patient had lab records in the past 6 months, ALT concentrations were <20 U/L female and <30 U/L male. AST concentration for all patients at the time of screening was <5× ULN • 6. […] Platelet counts≥120,000/mm^3 • 8. Female subjects were eligible for the study if they met the following criteria: • Are not pregnant or nursing • Women of child-bearing potential (defined as females who are not surgically sterile or who are not over the age of 52 and amenorrheic for at least 12 months) must utilize appropriate birth control throughout the study duration. Acceptable methods that may be used are abstinence, birth control pills (“The Pill”) or patch, diaphragm, IUD (coil), vaginal ring, condom, surgical sterilization or progestin implant or injection, or sexual activity limited to a sterile (e.g., vasectomized) male partner • 9. Male participants agreed to consistently and correctly use a condom in combination with one of the above methods of birth control from enrolment to 30 days after the last dose of study medication • 10. Participants were able to comply with dosing and able to complete the study schedule of assessments

[4] = metabolite profiling of plasma, urine, feces after intravenous dose; conditions: rats 10 mg/kg intravenous
Experimental: Samples were profiled using high performance liquid chromatography with radiodetection and metabolic characterization was performed using mass spectrometry and tandem mass spectrometry analysis.

- CL/F, mean (standard deviation) ([3]; 50 mg QD (n = 22)): 150.6 (51.5) L/h
- CL/F, mean (standard deviation) ([3]; 150 mg QD (n = 21)): 176.6 (80.5) L/h
- CL/F, mean (standard deviation) ([3]; 300 mg BID (n = 21)): 166.2 (60.4) L/h
- AUC(0-t) ([3]; 50 mg QD (n = 22)): 340 ng·h/mL
- Cmax ([3]; 50 mg QD (n = 22)): 79.1 ng/mL
- half-life ([3]; 50 mg QD (n = 22)): 162 min
- Tmax ([3]; 50 mg QD (n = 22)): 2.4 h
- AUC(0-t) ([3]; 150 mg QD (n = 21)): 1040 ng·h/mL
- Cmax ([3]; 150 mg QD (n = 21)): 274 ng/mL
- half-life ([3]; 150 mg QD (n = 21)): 162 min
- Tmax ([3]; 150 mg QD (n = 21)): 2 h
- AUC(0-t) ([3]; 300 mg BID (n = 21)): 2140 ng·h/mL
- Cmax ([3]; 300 mg BID (n = 21)): 430 ng/mL
- half-life ([3]; 300 mg BID (n = 21)): 144 min
- Tmax ([3]; 300 mg BID (n = 21)): 2.3 h
- % of dose in feces ([4]; pools 0 to 48 hours): 2%
- share of the exposure (AUC) to 25HC3S related radioactivity in plasma ([4]; up to 1 hour post-dose): approximately 54%
SMILES: C[C@H](CCCC(C)(C)O)[C@H]1CC[C@H]2[C@@H]3CC=C4C[C@@H](OS(=O)(=O)O)CC[C@]4(C)[C@H]3CC[C@]12C [25HC3S, 25-hydroxycholesterol-3-sulfate]
- CREB5 expression, increase (Huh-7 cells [1]): up to 20 fold
- DUSP8 expression, increase (Huh-7 cells [1]): 5 fold
- FAS expression, decrease (Huh-7 cells [1]): ~90%
- HMGR expression, decrease (Huh-7 cells [1]): ~90%
- PGC1A expression, increase (Huh-7 cells [1]): 12 fold
- genes demethylated in promoter regions, Calcium signaling pathway (Huh-7 cells [2]; HG 72 h, then 25HC3S 4 h): 19 genes
- genes demethylated in promoter regions, MAPK signaling pathway (Huh-7 cells [2]; HG 72 h, then 25HC3S 4 h): 23 genes
- genes demethylated in promoter regions, cAMP signaling pathway (Huh-7 cells [2]; HG 72 h, then 25HC3S 4 h): 28 genes
- genes with 5mCpG converted to CpG in promoter regions (Huh-7 cells [2]; high glucose model): 1074 genes
